Data from paper PMC10718076, “1,2-Disubstituted bicyclo[2.1.1]hexanes as saturated bioisosteres of ortho-substituted benzene” (Chemical Science, 2023).
Values after ≈ are worked out from the molar mass of the structure shown. Where two headings read alike, the source gives them in different places.

Key:
[1] = Kinetic solubility in phosphate-buffered saline, pH 7.4; format: physicochemical; conditions: 25 °C, kinetic from dmso stock, phosphate-buffered saline; for solubility kinetic at 2 h: aqueous buffer, pH 7.4, read-out: Sol.: experimental kinetic solubility; for solubility at 2 h: pH 7.4, aqueous buffer
Method: Analysis of Aqueous Solubility […]
compound (Ondansetron) were assessed for kinetic solubility in phosphate -buffered saline, pH 7.4.
Phosphate buffered saline, pH 7.4 (Sigma -Aldrich, USA; Cat #P3813) […]
MultiScreen HTS 96 Well Filter Plates (Millipore, Ireland; Cat # MSSLBPC10) […]
Matrix Multichannel Electronic Pipette 2-125 μL, 5-250 μL, 15-1250 μL (Thermo Scientific, USA; […]
Vacuum pump (Millipore, USA; Model # XX5500000)
The measurements were performed using SpectraMax Plus reader in UV -Vis mode. Acquisition and […]
The measurements were performed using SpectraMax Paradigm reader in UV-Vis mode.
Acquisition and analysis of the data were performed using SoftMax Pro v.5.4 (Molecular Devices) […]
Kinetic solubility assay was performed according to the Enamine’s aqueous solubility SOP. Briefly, using a 20 mM stock solution of the compound in 100% DMSO dilutions were prepared to a theoretical concentration of 400 μM in duplicates in phosphate-buffered saline pH 7.4 […]
compound dilutions in PBS were further allowed to equilibrate at 25 °C on a thermostatic shaker for two hours and then filtered through HTS filter plates using a vacuum manifold. The filtrates of test compounds were diluted 2-fold with acetonitrile with 2% DMSO before measuring.
In parallel, compound dilutions in 50% acetonitrile/PBS were prepared to theoretical concentrations […]
calibration curves. Ondansetron was used as reference compound to control proper assay performance. 200 μl of each sample was transferred to 96-well plate and measured in 230-550 nm range with 5 nm step. The effective range of this assay is approximately 2-400 μM and the […]
The concentrations of compounds in PBS filtrate are calculated using a dedicated Microsoft Excel calculation script. Proper absorbance wavelengths for calculations are selected for each compound manually based on absorbance maximums (absolute absorbance unit values for the minimum and maximum concentration points within the 0 – 3 OD range). Each final dataset is visually evaluated by the operator, and goodness of fit (R2) is calculated for each calibration curve. […]
samples were diluted 2-fold with acetonitrile containing internal standard and were analyzed using the HPLC system coupled with a tandem mass spectrometer. The effective range of this assay is […]

[2] = system: Aspergillus niger (strain VURV-F 822); assay: Antifungal disk diffusion method; format: cell-based; conditions: for zone of inhibition at 4 µg/mL: Concentration 0.004 mg/mL, Boscalid, Bixafen marked st; for zone of inhibition at 4 µg/mL / zone of inhibition at 8 µg/mL / zone of inhibition at 16 µg/mL / zone of inhibition at 30 µg/mL / zone of inhibition at 60 µg/mL: 0 = absence of antifungal activity; for zone of inhibition at 4 µg/mL / zone of inhibition at 60 µg/mL: Fluxapyroxad; for zone of inhibition at 4 µg/mL / zone of inhibition at 8 µg/mL / zone of inhibition at 16 µg/mL / zone of inhibition at 30 µg/mL / zone of inhibition at 60 µg/mL / zone of inhibition at 120 µg/mL / zone of inhibition at 250 µg/mL / zone of inhibition at 500 µg/mL / zone of inhibition at 1000 µg/mL / zone of inhibition at 2000 µg/mL: read-out: Diameter of inhibition zone; for zone of inhibition at 8 µg/mL: Concentration 0.008 mg/mL; for zone of inhibition at 16 µg/mL: Concentration 0.016 mg/mL; for zone of inhibition at 30 µg/mL: Concentration 0.03 mg/mL; for zone of inhibition at 30 µg/mL / zone of inhibition at 60 µg/mL: (±)-29 marked st; for zone of inhibition at 60 µg/mL: Concentration 0.06 mg/mL, Bixafen; for zone of inhibition at 120 µg/mL: Concentration 0.12 mg/mL, (±)-28 marked st (static growth); for zone of inhibition at 250 µg/mL: Concentration 0.25 mg/mL, (±)-28 marked st (static growth, secondary growth of mycelium); for zone of inhibition at 500 µg/mL: Concentration 0.5 mg/mL; for zone of inhibition at 500 µg/mL / zone of inhibition at 1000 µg/mL / zone of inhibition at 2000 µg/mL: 10 μl per disk; for zone of inhibition at 1000 µg/mL: Concentration 1 mg/mL; for zone of inhibition at 2000 µg/mL: Concentration 2 mg/mL
Method: Antifungal activity of the synthetic compounds using disk diffusion methods The compounds were tested for plant pathogens Aspergillus niger (strain VURV-F 822), which was received from Culture collection of microorganisms of Crop Research Institute (Prague, Czech […]
The synthetic compounds' antifungal activity was evaluated using a disk diffusion assay for testing filamentous fungi (CLSI M51-A) and broth microdilution antifungal susceptibility testing (EUCAST E.DEF 7.3.1; CLSI M38-A2)
[CLSI M51-A. Method for Antifungal Disk Diffusion Susceptibility Testing of Nondermatophyte Filamentous Fungi; Approved Guideline.CLSI document M51-A. Wayne, PA:
Clinical and Laboratory Standards Institute; 2010. This method is standardized for Altenaria, Aspergillus, Bipolaris, Fusarium, order Mucorales, etc.]
[CLSI M38-A2. 2008. Reference method for broth dilution antifungal susceptibility testing of filamentous fungi, 2nd ed Approved standard M38 -A2 Clinical and Laboratory Standards Institute, […]
Antifungal disk diffusion method
The solutions of fungicides and their analogues were diluted in dimethyl sulfoxide (DMSO) to […]
mg/mL for each test component. Sterile paper disks (ASPECT, Ukraine) were soaked with 10 μl of a solution of the appropriate fungicide from the highest concentration to the lowest.
The fungal strains were cultured on Petri dishes with Saburo dextrose agar (Condalab, Spain) and incubated at 25 °C for 5 days. Sterile Dulbecco's phosphate -buffered saline (DPBS) with 0,1 % Tween 20 was used to cover colonies of fungus for obtained conidia l suspension. Suspension of conidia was adjusted to inoculums 2×10^5 conidia/mL by sterile DPBS.
For antifungal disk diffusion test we used square Petri dishes (FALCON A Corning Brand, USA). The conidial suspension (0.5 mL) was added to Petri dishes with Saburo dextrose agar. The suspension was evenly distributed over the surface of the nutrient medium with a glass spatula.
After the surface of the inoculated medium was dry, the disks with different concentrations of testing compounds were added to the Petri dishes. Each compound was tested in triplicate at different concentrations. Growth control was a disk with 10 μl of DMSO, which was used for test […]
Petri dishes incubated at 25 °C for 72 h. The test compounds at known concentrati on into contact with an inoculated medium then exert a growth-inhibiting effect then a clear zone (the zone of […]
inhibition) appears around the test product. The diameter of a clear zone around the well is […]
If the fungal strain is susceptible to the antifungal agent, then a zone of inhibition appears on the agar plate. If it is resistant to the test compound, then no zone is evident. The size of the zone of inhibition is usually related to the level of antifungal activity present in the compound – a larger […]
The growth rate of all strains for each concentration of test compounds was determined visually and compared with the growth of control.
Broth microdilution antifungal susceptibility testing
A 96-well CELLSTAR plate (sterile, flat-bottomed, polystyrene, transparent) was used to determine MIC by broth microdilution method. Also, dabble straight RPMI-1640 medium with 2% glucose (2x RPMI 2%G) was used for this method. Spore suspension for plate inoculation was prepared according to the method described above for the disc diffusion method.
The each well in the plate contained 49 μl of medium (2x RPMI 2%G), 50 μl of inoculum (prepared in DPBS) and 1 μl of the stock solution of the test substance. Positive control wells contained 50 μl medium and 50 μl inoculum, and sterile control wells contained 50 μl medium and […]
To determine the MIC by the microdilution method, a series of stock solutions of fungicides and their analogues in DMSO with the following concentrations were prepared: 3.2 mg/mL, 1.6 mg/mL, […]
1 μl of the stock solutions of the test substances were added to each well to obtain the following […]
Immediately after adding all the components to the plates, the optical density was measured at […]

physchem = conditions: pH 7.4, LogD, pH 7.4
Method: Determination of Distribution Coefficient (LogD, pH 7.4)
coefficient (or LogD) is a logarithm of the ratio of drug concentrations in two immiscible solvents,
typically pH-buffered water and n-octanol. It is a measure of hydrophobic/hydrophilic properties of
a given molecule. The partition of test compounds is determined using a shake-flask method, which
involves mixing of a certain amount of the solute of interest in defined volumes of n-octanol and an
aqueous buffer of choice followed by equilibration of the mixture by incubation with efficient
mixing. Then, the distribution of the compounds in each solvent was controlled using LC-MS/MS.
Phosphate buffered saline, tablet (Sigma-Aldrich, USA; Cat # P4417)
Acetic acid (Enamine, Ukraine)
1.1 mL microtubes in microracks, pipettor tips (Thermo Scientific, USA).
National Scientific MicroTube™ Rack (Thermo Fisher Scientific, USA; Cat # TN094612R)
Gradient HPLC system (Shimadzu, Japan)
Triple quadrapole mass-detector API 3000 with TurboIonSpray Ion Source (AB Sciex, Canada)
MTR22 Multi Mix Rotator (UNICO, USA)
Laboratory Centrifuge, Sigma 4-15C, Qiagen (SIGMA GmbH, Germany)
Water purification system Millipore Milli-Q Gradient A10 (Millipore, France)
All measurements were performed using a Shimadzu Prominence HPLC system including a
vacuum degasser, gradient pumps, a reverse phase column, a column oven and an autosampler.
Mass spectrometric analysis was performed using an API 4000 QTRAP mass spectrometer from
Applied Biosystems/MDS Sciex (AB Sciex) with Turbo V ion source and TurboIonspray
interface. The TurboIonSpray ion source was used in both positive and negative ion modes.
Acquisition and analysis of the data were performed using Analyst 1.6.3 software.
Incubations were carried out in Eppendorf-type polypropylene microtubes in triplicates. A 2.5 μL
aliquot of 20 mM DMSO stock of a test compound was added into the previously mutually
saturated mixture containing 500 μL of PBS (pH 7.4) and 500 μL of octanol. The solution was
allowed to mix in a rotator for 1 hour at 30 rpm. Phase separation was assured by centrifugation for
2 min at 6000 rpm. The octanol phase was diluted 100-fold with 40% acetonitrile, and the aqueous
phase (PBS buffer) was diluted 10-fold with 40% acetonitrile. The samples (both phases) were
analyzed using an HPLC system coupled with a tandem mass spectrometer.
Calculations of the partition ratios were carried out using the equation below.
where: – peak area of the analyte in octanol phase
– peak area of the analyte in PBS buffer
– dilution coefficient for octanol phase dp – dilution coefficient for aqueous phase

[3] = Table S5, injection 1, octanol/PBS pH 7.4
[4] = Table S5, injection 2, octanol/PBS pH 7.4
[5] = Table S5, injection 3, octanol/PBS pH 7.4
[6] = Table S2, 2st batch, read-out: PBS solubility, pH 7.4, Incubation 1
[7] = Table S2, 2st batch, read-out: PBS solubility, pH 7.4, Incubation 2
[8] = Table S2, 2st batch, read-out: PBS solubility, pH 7.4, Mean

| SMILES | D [3] | D [4] | D [5] | solubility kinetic at 2 h [1] [µM] | zone of inhibition at 4 µg/mL [2] [mm] | zone of inhibition at 8 µg/mL [2] [mm] | zone of inhibition at 16 µg/mL [2] [mm] | zone of inhibition at 30 µg/mL [2] [mm] | zone of inhibition at 60 µg/mL [2] [mm] | zone of inhibition at 120 µg/mL [2] [mm] | zone of inhibition at 250 µg/mL [2] [mm] | zone of inhibition at 500 µg/mL [2] [mm] | zone of inhibition at 1000 µg/mL [2] [mm] | zone of inhibition at 2000 µg/mL [2] [mm] | logD at 1 h (physchem) | solubility at 2 h [1, 6] [µM] | solubility at 2 h [1, 7] [µM] | solubility at 2 h [1, 8] [µM] | also measured |
| --- | --- | --- | --- | --- | --- | --- | --- | --- | --- | --- | --- | --- | --- | --- | --- | --- | --- | --- | --- |
| Cn1cc(C(=O)Nc2ccc(F)cc2-c2ccc(Cl)c(Cl)c2)c(C(F)F)n1 [Bixafen, bixafen] | 1.23E+04 | 1.53E+04 | 2.30E+04 | 30 (≈ 12.4 µg/mL) | 9 ± 2 | 15.8 ± 1.25 | 14.5 ± 1 | 20.2 ± 2.25 | 20.5 ± 1.75 | 27 ± 1 | 32 ± 2.5 | 32.8 ± 1.75 | 35.2 ± 1.4 | 38 ± 1 | 4.09 |  |  |  | solubility at 2 h ([1]; Table S4, 4nd batch, read-out: PBS solubility, pH 7.4, Incubation 1): 29 µM (≈ 12 µg/mL); solubility at 2 h ([1]; Table S4, 4nd batch, read-out: PBS solubility, pH 7.4, Incubation 2): 31 µM (≈ 12.8 µg/mL); solubility at 2 h ([1]; Table S4, 4nd batch, read-out: PBS solubility, pH 7.4, Mean): 30 µM (≈ 12.4 µg/mL); MIC ([2]; disk diffusion, small zones of inhibition with secondary mycelial growth, read-out: minimum inhibitory concentration): 4 µg/mL (≈ 9.66 µM) |
| O=C(NC1CC2CC1(c1ccc(Cl)cc1)C2)c1cccnc1Cl (stereo not shown) [Compound 28] | 3.84E+03 | 3.81E+03 | 3.49E+03 | 35 (≈ 12.2 µg/mL) | 0 | 0 | 0 | 0 | 0 | 9 ± 0.5 | 7.5 ± 0.5 | 10.5 ± 1.5 | 13.8 ± 0.88 | 15.5 ± 0.5 | 3.58 | 35 (≈ 12.2 µg/mL) | 34 (≈ 11.8 µg/mL) | 35 (≈ 12.2 µg/mL) |  |
| Cn1cc(C(=O)NC2CC3CC2(c2ccc(Cl)c(Cl)c2)C3)c(C(F)F)n1 (stereo not shown) [Compound 29] | 1.26E+04 | 1.38E+04 | 1.92E+04 | 4 (≈ 1.6 µg/mL) | 0 | 0 | 0 | 3.5 ± 0.5 | 6.5 ± 1 | 8.75 ± 1.25 | 12 ± 0.5 | 12.5 ± 1.5 | 16.2 ± 1.25 | 23.5 ± 2 | 4.1 | 4 (≈ 1.6 µg/mL) | 4 (≈ 1.6 µg/mL) | 4 (≈ 1.6 µg/mL) |  |
| Cn1cc(C(=O)NC2CC3CC2(c2cc(F)c(F)c(F)c2)C3)c(C(F)F)n1 (stereo not shown) [Compound 30] | 4.08E+03 | 4.11E+03 | 4.44E+03 | 27 (≈ 10.4 µg/mL) | 0 | 0 | 0 | 0 | 0 | 10 ± 0.5 | 8.5 ± 1 | 13.8 ± 0.75 | 20.5 ± 1 | 24.2 ± 0.75 | 3.61 | 25 (≈ 9.63 µg/mL) | 28 (≈ 10.8 µg/mL) | 27 (≈ 10.4 µg/mL) |  |
